From BigSolDB 2.1

C#C[C@]1(O)CC[C@H]2[C@@H]3CCC4=CC(=O)CC[C@@H]4[C@H]3C(=C)C[C@@]21CC
solubility (mole fraction)
Conditions	278.15 K	283.15 K	288.15 K	293.15 K	298.15 K	303.15 K	308.15 K	313.15 K	318.15 K	323.15 K
in DMF	0.0797	0.084	0.0882	0.093	0.0975	0.102	0.107	0.112	0.117	0.121
in isopropanol	0.00597	0.00697	0.00803	0.00923	0.0106	0.0121	0.0137	0.0156	0.0174	0.0195
in n-propanol	0.00504	0.00579	0.00677	0.00783	0.00901	0.0103	0.0117	0.0132	0.015	0.0168
in water	1.48e-05	1.8e-05	2.15e-05	2.56e-05	3.11e-05	3.69e-05	4.3e-05	5.03e-05	5.85e-05	6.78e-05
